A short description of series [1]: MTT cytotoxicity assay, HepG2. As to conditions: human, HepG2 cells. On the set-up: cytotoxicity at 72 h / Cytotoxicity (%I) HepG2: dose or concentration left out as unconfirmed.
Procedure: (§1) MTT assay was used to measure the in vitro cytotoxicity of the isolated compounds. Human breast adenocarcinoma cell line (MCF-7), human liver hepatocellular carcinoma cell line (HepG2), and human cervical cancer cell line (HeLa) were cultured in Dulbecco’s modified Eagle’s medium (DMEM) and Roswell Park Memorial Institute medium (RPMI 1640), which was supplemented with 10% fetal bovine serum (FBS) at 37 °C in a humidified atmosphere of 5% CO2. The cells were cultured in 96-well plates for 24 h and then treated with test compounds at various concentrations (8–125 μM) for 72 h. After incubation for another 4 h with a 20 µL aliquot of the MTT [3-(4,5-dimethylthiazol-2-yl)-2,5-diphenyl tetrazolium bromide] solution (5 mg/mL in PBS), the medium was discarded, and 150 µL of DMSO was added to dissolve the produced formazan. The absorbance was measured at 490 nm and 570 nm using a microplate reader. Doxorubicin was used as a positive control. Each experiment was carried out in triplicate. The IC50 values were calculated using Graphpad Prism 5 software.
Series [2] in a line: MTT cytotoxicity assay, LO2. The arrangement: dose or concentration left out as unconfirmed. As to conditions: human, LO2 normal liver cells. In general terms: Tetrazolium assays rely on reduction of a dye to a coloured formazan, in cell work by metabolically active cells.
Series [3] is described as follows: MTT cytotoxicity assay, HeLa. The arrangement: cytotoxicity at 72 h / Cytotoxicity (%I) HeLa: dose or concentration left out as unconfirmed. As to conditions: human, HeLa cells.
Procedure: as §1
Series [4] is described as follows: MTT cytotoxicity assay, MCF-7. The arrangement: cytotoxicity at 72 h: dose or concentration left out as unconfirmed. As to conditions: human, MCF-7 cells.
Procedure: as §1
Series [5] relates to three human tumor cell lines (HepG2, MCF-7, and HeLa). The series is described as follows: MTT cytotoxicity assay, summary over three tumor cell lines.
Series [6] relates to human hepatocellular carcinoma cell line (HepG2). In words: MTT cytotoxicity assay, HepG2. The arrangement: cytotoxicity at 72 h / Cytotoxicity (%I) HepG2: dose or concentration left out as unconfirmed. As to conditions: HepG2; MTT.
Procedure: as §1
Series [7] concerns normal human liver cell line (LO2). In words: MTT cytotoxicity assay, LO2. The arrangement: dose or concentration left out as unconfirmed. As to conditions: LO2 normal liver cells; MTT.
Series [8] relates to human cervical carcinoma cancer cell line (HeLa). In words: MTT cytotoxicity assay, HeLa. On the set-up: cytotoxicity at 72 h / Cytotoxicity (%I) HeLa: dose or concentration left out as unconfirmed. The settings on record: HeLa; MTT.
Procedure: as §1
Series [9] has as its system human breast cancer cell line (MCF-7). In words: MTT cytotoxicity assay, MCF-7. The arrangement: cytotoxicity at 72 h: dose or concentration left out as unconfirmed. The settings on record: MCF-7; 4 mg/mL; MTT.
Procedure: as §1
Series [10] concerns human cervical carcinoma cancer cell line (HeLa). On the set-up: Cytotoxicity (%I) HeLa: dose or concentration left out as unconfirmed.
Procedure: as §1
Series [11] has as its system normal human liver cell line (LO2). The arrangement: dose or concentration left out as unconfirmed.
The test system of series [12] is human breast cancer cell line (MCF-7).
Procedure: as §1
For series [13], the system named is human hepatocellular carcinoma cell line (HepG2). On the set-up: Cytotoxicity (%I) HepG2: dose or concentration left out as unconfirmed.
Procedure: as §1

By IC50 is commonly meant the concentration that inhibits the measured activity by half.

Like-named read-outs stand apart in the source and are kept apart here.

With `C=C1CCC2C(C)(C(=O)O)CCCC2(C)C1C=CC(C)=O` [Compound 1, (4R,5S,9S,10R)-13-des-ethyl-13-oxolabda-8(17),11E-dien-19-oic acid], the cytotoxicity at 72 h in series [1] is 18.4%; in [2], 20.6%; in series [3] it was 26.4%; in [4], 28.4%.

Turning to `C=C1CC[C@@H]2[C@](C)(CCC[C@]2(C)C(=O)O)[C@H]1C/C=C(/C)C=O` [Compound 2, 15-nor-14-oxolabda-8(17),12Z-dien-19-oic acid], the cytotoxicity at 72 h turned out to be 16.1% in series [1], 10.6% in series [2], 23.9% in [3] and 21.1% in series [4].

On to `CC(C)c1cc2c(cc1O)[C@@]1(C)CCCC(C)(C)[C@@H]1CC2=O` [Compound 3, sugiol], for which the cytotoxicity at 72 h was found to be 35% in series [1], 26.6% in series [2], 12.3% in series [3] and 9.2% in series [4].

As to `CC(C)c1cc2c(cc1O)C1(C)CCCC(C)(C)C1=C(O)C2=O` (centres unmarked) [Compound 6, 6,12-dihydroxyabieta-5,8,11,13-tetraen-7-one], the cytotoxicity in words result in [5] (HepG2, MCF-7 and HeLa, MTT) is recorded as “moderate cytotoxicity”. Moreover, the IC50 in [5] (Homo sapiens, read-out: IC50 values, range over all three cell lines) fell in the range of 24.4 to 58.4 µM. The IC50 at 72 h turned out to be 48.7 ± 1.31 µM in [1], 24.4 ± 2.05 µM in [3] and 58.4 ± 2.45 µM in [4]. The cytotoxicity at 72 h is 86.6% in [1], 27.8% in series [2], 83.8% in series [3] and 84% in [4].

For the compound `O=c1ccc2ccc(O)cc2o1` [Compound 13, umbelliferone], the cytotoxicity at 72 h in [1] is 32.7%; in series [2], 26.6%; in series [3], 3.6%; in [4], 18%.

For the compound `COc1cccc2c1C(=O)c1c(O)c3c(c(O)c1C2=O)C[C@@](O)(C(=O)CO)C[C@@H]3O[C@H]1C[C@H](N)[C@H](O)[C@H](C)O1` [Doxorubicin, reference compound], the IC50 at 72 h in series [1] was determined as 3.18 ± 1.19 µM; in [3] it was 3.64 ± 1.37 µM; in [4], 3.44 ± 1.59 µM. For the same compound, the cytotoxicity at 72 h turned out to be 42.2% in series [1], 46.7% in [2], 49.5% in series [3] and 46.5% in [4].

Regarding helioxanthin [Compound 5], in series [6], the “Cytotoxicity (%I) HepG2” value is 0.11%. In addition, the “Cytotoxicity (%I) LO2” value in series [7] came out at 9.05%. Also, the “Cytotoxicity (%I) HeLa” value in series [8] was determined as 0.22%. For the same compound, the “Cytotoxicity (%I @ 4 mg/mL) MCF-7” value in series [9] was determined as 10.09%.

On to sempervirol [Compound 10], for which the cytotoxicity in words entry in [5] is given as “weaker activity”. Also, in series [10], the “Cytotoxicity (%I) HeLa” value is 63.4% and inhibition was half-maximal at 56.9 ± 2.39 µM (IC50). Besides, the “Cytotoxicity (%I) LO2” value in series [11] came to 19.08%. In series [12], the “Cytotoxicity (%I @ 4 mg/mL) MCF-7” value is 43.4% and the half-maximal inhibitory concentration (IC50) came to 80 ± 1.2 µM. In series [13], the “Cytotoxicity (%I) HepG2” value is reported as 48.67% and the IC50 turned out to be 64.9 ± 2.64 µM.
